Tests used:
[1] = Dose escalation study: tolerability and safety (DLT, MTD, treatment emergent adverse events) of orally administered Compound A 1.5 succinate in patients with solid tumor; format: in vivo
Procedure: The following study was carried out in order to evaluate tolerability and safety when Compound A 1.5 succinate was orally administered to patients with solid tumor. We attempted to determine the maximum tolerated dose (MTD) by evaluating the dose limiting toxicity (DLT) when Compound A 1.5 succinate was orally administered to patients with solid tumor. Each dose in Examples is represented as a dose of Compound A in free form.
A Modified Toxicity Probability Interval (mTPI) design was employed to determine the MTD of Compound A. Each subject was assigned a dose of Compound A in accordance with the rules of the mTPI design based on a target dose-limiting toxicity (DLT) rate of 25% and the corresponding three toxicity probability intervals that was defined as 20 to 30% (proper dosing), 0 to 20% (underdosing) and 30 to 100% (overdosing). The entire dose assignment decision rule can be precalculated under the mTPI design and presented in two-way table as below.
In order to evaluate the PK when administered as a single dose, a single dose of Compound A for each treatment group (at the corresponding dosage for that group) was administered on Day 1. Compound A was administered when fasted, immediately after waking up with at least 10 hours fasting. Taking any meal was prohibited for 2 hours after administration and only drinking water was allowed.
Cycle 1 was started between 8 and 10 days after dosing in Cycle 0 and Compound A was administered continuously once daily. Compound A was administered at least 2 hours after breakfast, and any food intake was prohibited for 1 hour after administration. However, on Day 8 of Cycle 1, Compound A was administered immediately after waking up while the subject was fasted after at least 10 hours of overnight fasting in order to evaluate the PK. Taking any meals was prohibited for 2 hours after administration and only drinking water was allowed.
• (1) Grade 4 neutropenia that persists for more than 7 days or febrile neutropenia • (2) Grade 4 thrombocytopenia or Grade 3 thrombocytopenia that requires blood transfusion • (3) Any Grade 3 or higher non-hematological toxicity with the exception of: • a) Abnormal clinical laboratory values with no clinical significance. • b) Any events which can be managed and controlled to Grade 2 or less by maximal medical management. • (4) New calcification that is considered clinically significance in such as soft tissue, kidney, intestine, heart or lung confirmed by images • (5) Hyperphosphatemia defined as follows • a) >7 mg/dL>7d despite phosphate lowering therapies • b) >9 mg/dL despite phosphate lowering therapies. • (6) Development of any toxicity that is considered to be related to Compound A and where treatment interruption for 8 days or more from Cycle 0 to Cycle 1 is necessary.
The MTD was not defined and the recommended dose was determined to be 140 mg once daily.

[2] = test system: FGFR pathway; test: Pharmacodynamics: serum Phosphate, FGF23 and 1,25-(OH)2-Vitamin D, PD markers of FGFR pathway inhibition; format: in vivo, human
Procedure: Serum concentrations of Phosphate, FGF23 and 1,25-(OH)2-Vitamin D, PD markers of FGFR pathway inhibition were measured before the administration of Compound A and on Day 15 of Cycle 1.

CNC(=O)n1ccc2cc(Oc3ccnc(NC(=O)c4ccc(C5CCN(CCO)CC5)cc4)c3)c(OCCOC)cc21 [Compound A, 5-((2-(4-(1-(2-hydroxyethyl)piperidin-4-yl)benzamide)pyridin-4-yl)oxy)-6-(2-methoxyethoxy)-N-methyl-1H-indole-1-carboxamide]
death or adverse events leading to study drug withdrawal ([1]; all cohorts): No death or adverse events leading to study drug withdrawal were reported
ALP increased, Any Gr, n (%) ([1]; human, in vivo): 3 (13)
AST increased, Any Gr, n (%) ([1]; human, in vivo): 4 (17)
ATL increased, Any Gr, n (%) ([1]; human, in vivo): 6 (25)
ATL increased, ≥Gr3, n (%) ([1]; human, in vivo): 2 (8)
Anaemia, Any Gr, n (%) ([1]; human, in vivo): 3 (13)
Constipation, Any Gr, n (%) ([1]; human, in vivo): 2 (8)
Creatinine increased, Any Gr, n (%) ([1]; human, in vivo): 9 (38)
Decreased appetite, Any Gr, n (%) ([1]; human, in vivo): 2 (8)
Decreased appetite, ≥Gr3, n (%) ([1]; human, in vivo): 1 (4)
Diarrhoea, Any Gr, n (%) ([1]; human, in vivo): 6 (25)
Dysgeusia, Any Gr, n (%) ([1]; human, in vivo): 3 (13)
Hyperphosphatemia, Any Gr, n (%) ([1]; human, in vivo): 9 (38)
Lipase increased, Any Gr, n (%) ([1]; human, in vivo): 5 (21)
Lymphocyte count decreased, Any Gr, n (%) ([1]; human, in vivo): 2 (8)
Malaise, Any Gr, n (%) ([1]; human, in vivo): 2 (8)
Nausea, Any Gr, n (%) ([1]; human, in vivo): 5 (21)
Neutrophil count decreased, Any Gr, n (%) ([1]; human, in vivo): 2 (8)
Neutrophil count decreased, ≥Gr3, n (%) ([1]; human, in vivo): 1 (4)
Onychomadesis, Any Gr, n (%) ([1]; human, in vivo): 2 (8)
PPE syndrome, Any Gr, n (%) ([1]; human, in vivo): 4 (17)
Retinal detachment, Any Gr, n (%) ([1]; human, in vivo): 3 (13)
Stomatitis, Any Gr, n (%) ([1]; human, in vivo): 2 (8)
Vomiting, Any Gr, n (%) ([1]; human, in vivo): 3 (13)
Vomiting, ≥Gr3, n (%) ([1]; human, in vivo): 1 (4)
White blood cell count decreased, Any Gr, n (%) ([1]; human, in vivo): 2 (8)
adverse events leading to dose interruptions: anorexia ([1]; human, in vivo): 2 patients
adverse events leading to dose interruptions: common cold ([1]; human, in vivo): 1 patient
adverse events leading to dose interruptions: macular edema ([1]; human, in vivo): 1 patient
adverse events leading to dose interruptions: nausea ([1]; human, in vivo): 3 patients
adverse events leading to dose interruptions: neutrophil count decreased ([1]; human, in vivo): 1 patient
adverse events leading to dose interruptions: palmar-plantar erythrodysesthesia syndrome ([1]; human, in vivo): 1 patient
adverse events leading to dose interruptions: pyrexia ([1]; human, in vivo): 2 patients
adverse events leading to dose interruptions: vomiting ([1]; human, in vivo): 2 patients
adverse events leading to dose reductions: ALT increased ([1]; human, in vivo): 2 patients
adverse events leading to dose reductions: AST increased ([1]; human, in vivo): 1 patient
adverse events leading to dose reductions: palmar-plantar erythrodysesthesia syndrome ([1]; human, in vivo): 2 patients
dose limiting toxicity (DLT) ([1]; human, in vivo): one patient at 180 mg dosing experienced the DLT (Grade 3 AST/ALT increased)
recommended dose ([1]; human, in vivo): 140 mg
relation of serious adverse events to study drug ([1]; human, in vivo): none of them were considered to be related to Compound A
maximum tolerated dose (MTD) ([1]; once-daily dosing up to 180 mg): not defined
once-daily dosing at which increases of PD markers reached maximum ([2]; Day 15 of Cycle 1): 100 to 140 mg
change in serum Phosphate, FGF23 and 1,25-(OH)2-Vitamin D ([2]; Day 15 of Cycle 1 vs before administration): dose-dependent increases in each marker

— patent US20200297711A1, “PHARMACEUTICAL COMPOSITION COMPRISING FGFR SELECTIVE TYROSINE KINASE INHIBITOR” (priority 2017, published 2020)
